Laboratory results as given in ChEMBL document CHEMBL1201862, “PubChem BioAssay data set” (2004).
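Growth conditions: 96-well plates. Treatment: test compound, 48 hours, 5 concentrations. Analysis: linear interpolation between bracketing concentrations; unreached endpoints set to highest concentration. GI50 = concentration required for 50% inhibition of growth.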 Active and inactive are the calls of the source. No stated cut-off is given here; in the data, active = GI50 up to about 1.1 µM and inactive = higher.

Experiments:
Test in all cases: DTP human tumour cell line panel, 48 h
SK-OV-3 = tested on: SK-OV-3
SK-MEL-28 = tested on: SK-MEL-28
HT-29 = tested on: HT-29
SK-MEL-2 = tested on: SK-MEL-2
OVCAR-3 = tested on: OVCAR-3
OVCAR-5 = tested on: OVCAR-5
Hs-578T = tested on: Hs-578T
OVCAR-4 = tested on: OVCAR-4
M14 = tested on: M14
UO-31 = tested on: UO-31
SNB-75 = tested on: SNB-75
NCI-H23 = tested on: NCI-H23
Malme-3M = tested on: Malme-3M
PC-3 = tested on: PC-3
T47D = tested on: T47D
MDA-MB-231 = tested on: MDA-MB-231
UACC-62 = tested on: UACC-62
SN12C = tested on: SN12C
SF-268 = tested on: SF-268
UACC-257 = tested on: UACC-257
SF-295 = tested on: SF-295
SR = tested on: SR
MOLT-4 = tested on: MOLT-4
786-0 = tested on: 786-0
MDA-MB-435 = tested on: MDA-MB-435
MCF7 = tested on: MCF7
CAKI-1 = tested on: CAKI-1
HCT-15 = tested on: HCT-15
NCI/ADR-RES = tested on: NCI/ADR-RES
EKVX = tested on: EKVX
MDA-N = tested on: MDA-N
OVCAR-8 = tested on: OVCAR-8
HCT-116 = tested on: HCT-116
DU-145 = tested on: DU-145
LOX IMVI = tested on: LOX IMVI
NCI-H226 = tested on: NCI-H226
KM12 = tested on: KM12
SK-MEL-5 = tested on: SK-MEL-5
COLO 205 = tested on: COLO 205
RPMI-8226 = tested on: RPMI-8226
NCI-H460 = tested on: NCI-H460
IGROV-1 = tested on: IGROV-1
NCI-H522 = tested on: NCI-H522
BT-549 = tested on: BT-549
A498 = tested on: A498
CCRF-CEM = tested on: CCRF-CEM
U-251 = tested on: U-251
A549 = tested on: A549
SF-539 = tested on: SF-539
TK-10 = tested on: TK-10
K562 = tested on: K562
HOP-62 = tested on: HOP-62
RXF 393 = tested on: RXF 393
SW-620 = tested on: SW-620
ACHN = tested on: ACHN
HL-60 = tested on: HL-60
HCC 2998 = tested on: HCC 2998
SNB-19 = tested on: SNB-19

C[N+](C)(CCCn1ccnc1[N+](=O)[O-])CCCn1ccnc1[N+](=O)[O-]
GI50 (SK-OV-3): > 100 µM (inactive)
GI50 (SK-MEL-28): > 100 µM (inactive)
GI50 (HT-29): > 100 µM (inactive)
GI50 (SK-MEL-2): > 100 µM (inactive)
GI50 (OVCAR-3): > 100 µM (inactive)
GI50 (OVCAR-5): > 100 µM (inactive)
GI50 (Hs-578T): > 100 µM (inactive)
GI50 (OVCAR-4): > 100 µM (inactive)
GI50 (M14): > 100 µM (inactive)
GI50 (UO-31): > 100 µM (inactive)
GI50 (SNB-75): > 100 µM (inactive)
GI50 (NCI-H23): > 100 µM (inactive)
GI50 (Malme-3M): > 100 µM (inactive)
GI50 (PC-3): > 100 µM (inactive)
GI50 (T47D): > 100 µM (inactive)
GI50 (MDA-MB-231): > 100 µM (inactive)
GI50 (UACC-62): > 100 µM (inactive)
GI50 (SN12C): > 100 µM (inactive)
GI50 (SF-268): > 100 µM (inactive)
GI50 (UACC-257): > 100 µM (inactive)
GI50 (SF-295): > 100 µM (inactive)
GI50 (SR): > 100 µM (inactive)
GI50 (MOLT-4): > 100 µM (inactive)
GI50 (786-0): > 100 µM (inactive)
GI50 (MDA-MB-435): > 100 µM (inactive)
GI50 (MCF7): > 100 µM (inactive)
GI50 (CAKI-1): > 100 µM (inactive)
GI50 (HCT-15): > 100 µM
GI50 (NCI/ADR-RES): > 100 µM (inactive)
GI50 (EKVX): > 100 µM (inactive)
GI50 (MDA-N): > 100 µM (inactive)
GI50 (OVCAR-8): > 100 µM (inactive)
GI50 (HCT-116): > 100 µM (inactive)
GI50 (DU-145): > 100 µM (inactive)
GI50 (LOX IMVI): > 100 µM (inactive)
GI50 (NCI-H226): > 100 µM (inactive)
GI50 (KM12): > 100 µM (inactive)
GI50 (SK-MEL-5): > 100 µM (inactive)
GI50 (COLO 205): > 100 µM (inactive)
GI50 (RPMI-8226): > 100 µM (inactive)
GI50 (NCI-H460): > 100 µM (inactive)
GI50 (IGROV-1): > 100 µM (inactive)
GI50 (NCI-H522): > 100 µM (inactive)
GI50 (BT-549): 69.8 µM (inactive)
GI50 (A498): > 100 µM (inactive)
GI50 (CCRF-CEM): > 100 µM (inactive)
GI50 (U-251): > 100 µM (inactive)
GI50 (A549): > 100 µM (inactive)
GI50 (SF-539): > 100 µM (inactive)
GI50 (TK-10): > 100 µM (inactive)
GI50 (K562): > 100 µM (inactive)
GI50 (HOP-62): > 100 µM (inactive)
GI50 (RXF 393): > 100 µM (inactive)
GI50 (SW-620): > 100 µM (inactive)
GI50 (ACHN): > 100 µM (inactive)
GI50 (HL-60): > 100 µM (inactive)

Cc1ccc(C)n1-n1c(Cc2ccccc2)n[nH]c1=O
GI50 (SK-OV-3): > 100 µM (inactive)
GI50 (SK-MEL-28): > 100 µM (inactive)
GI50 (HT-29): > 100 µM (inactive)
GI50 (SK-MEL-2): > 100 µM (inactive)
GI50 (OVCAR-3): > 100 µM (inactive)
GI50 (OVCAR-5): > 100 µM (inactive)
GI50 (Hs-578T): > 100 µM (inactive)
GI50 (OVCAR-4): > 100 µM (inactive)
GI50 (M14): > 100 µM (inactive)
GI50 (UO-31): > 100 µM (inactive)
GI50 (SNB-75): 22.2 µM (inactive)
GI50 (Malme-3M): > 100 µM (inactive)
GI50 (PC-3): > 100 µM (inactive)
GI50 (T47D): > 100 µM (inactive)
GI50 (MDA-MB-231): > 100 µM (inactive)
GI50 (UACC-62): > 100 µM (inactive)
GI50 (SN12C): > 100 µM (inactive)
GI50 (SF-268): > 100 µM (inactive)
GI50 (UACC-257): 46 µM (inactive)
GI50 (SF-295): > 100 µM (inactive)
GI50 (SR): > 100 µM (inactive)
GI50 (MOLT-4): > 100 µM (inactive)
GI50 (786-0): > 100 µM (inactive)
GI50 (HCC 2998): > 100 µM (inactive)
GI50 (MDA-MB-435): > 100 µM (inactive)
GI50 (MCF7): > 100 µM (inactive)
GI50 (CAKI-1): > 100 µM (inactive)
GI50 (HCT-15): > 100 µM
GI50 (NCI/ADR-RES): > 100 µM (inactive)
GI50 (EKVX): 61.7 µM (inactive)
GI50 (MDA-N): > 100 µM (inactive)
GI50 (OVCAR-8): > 100 µM (inactive)
GI50 (HCT-116): > 100 µM (inactive)
GI50 (DU-145): > 100 µM (inactive)
GI50 (LOX IMVI): > 100 µM (inactive)
GI50 (NCI-H226): > 100 µM (inactive)
GI50 (KM12): > 100 µM (inactive)
GI50 (SK-MEL-5): > 100 µM (inactive)
GI50 (COLO 205): 76.7 µM (inactive)
GI50 (RPMI-8226): 91.2 µM (inactive)
GI50 (NCI-H460): > 100 µM (inactive)
GI50 (IGROV-1): > 100 µM (inactive)
GI50 (NCI-H522): 49.2 µM (inactive)
GI50 (BT-549): > 100 µM (inactive)
GI50 (A498): > 100 µM (inactive)
GI50 (CCRF-CEM): > 100 µM (inactive)
GI50 (U-251): > 100 µM (inactive)
GI50 (A549): > 100 µM (inactive)
GI50 (TK-10): > 100 µM (inactive)
GI50 (K562): > 100 µM (inactive)
GI50 (HOP-62): > 100 µM (inactive)
GI50 (RXF 393): > 100 µM (inactive)
GI50 (SW-620): > 100 µM (inactive)
GI50 (ACHN): > 100 µM (inactive)
GI50 (SNB-19): > 100 µM (inactive)

O=C1OC(C2Cc3cc4c(cc3C2=O)CCC4)c2ccccc21 (stereo not drawn)
GI50 (SK-OV-3): 21.7 µM (inactive)
GI50 (SK-MEL-28): 38.5 µM (inactive)
GI50 (HT-29): 30.6 µM (inactive)
GI50 (SK-MEL-2): 65 µM (inactive)
GI50 (OVCAR-3): 77.6 µM (inactive)
GI50 (OVCAR-5): > 100 µM (inactive)
GI50 (Hs-578T): 22.5 µM (inactive)
GI50 (OVCAR-4): 78.3 µM (inactive)
GI50 (M14): > 100 µM (inactive)
GI50 (UO-31): 55.6 µM (inactive)
GI50 (SNB-75): 51.4 µM (inactive)
GI50 (NCI-H23): 47.1 µM (inactive)
GI50 (Malme-3M): > 100 µM (inactive)
GI50 (PC-3): 30.3 µM (inactive)
GI50 (T47D): 71.3 µM (inactive)
GI50 (MDA-MB-231): 36.6 µM (inactive)
GI50 (UACC-62): 20.7 µM (inactive)
GI50 (SN12C): 63 µM (inactive)
GI50 (SF-268): 45.7 µM (inactive)
GI50 (UACC-257): > 100 µM (inactive)
GI50 (SF-295): 74.5 µM (inactive)
GI50 (SR): 35.7 µM (inactive)
GI50 (MOLT-4): 23.7 µM (inactive)
GI50 (786-0): 80 µM (inactive)
GI50 (HCC 2998): 21.2 µM (inactive)
GI50 (MDA-MB-435): 40.3 µM (inactive)
GI50 (MCF7): 41.5 µM (inactive)
GI50 (CAKI-1): > 100 µM (inactive)
GI50 (HCT-15): 34.3 µM
GI50 (NCI/ADR-RES): 63.4 µM (inactive)
GI50 (EKVX): 49.5 µM (inactive)
GI50 (MDA-N): 75.3 µM (inactive)
GI50 (OVCAR-8): 67.1 µM (inactive)
GI50 (HCT-116): 36.6 µM (inactive)
GI50 (DU-145): 93.1 µM (inactive)
GI50 (LOX IMVI): 37 µM (inactive)
GI50 (NCI-H226): 20.6 µM (inactive)
GI50 (KM12): 35.9 µM (inactive)
GI50 (SK-MEL-5): 21.3 µM (inactive)
GI50 (COLO 205): 33.9 µM (inactive)
GI50 (RPMI-8226): 35.3 µM (inactive)
GI50 (NCI-H460): 40 µM (inactive)
GI50 (IGROV-1): 45.5 µM (inactive)
GI50 (NCI-H522): 50.4 µM (inactive)
GI50 (BT-549): > 10 µM (inactive)
GI50 (A498): 25.9 µM (inactive)
GI50 (CCRF-CEM): 25.6 µM (inactive)
GI50 (U-251): 34 µM (inactive)
GI50 (A549): 44.7 µM (inactive)
GI50 (SF-539): 27.9 µM (inactive)
GI50 (TK-10): > 100 µM (inactive)
GI50 (K562): 33.6 µM (inactive)
GI50 (HOP-62): 65 µM (inactive)
GI50 (SW-620): 37.3 µM (inactive)
GI50 (ACHN): 47.9 µM (inactive)
GI50 (SNB-19): 32.1 µM (inactive)
GI50 (HL-60): 42.9 µM (inactive)
